Test results published in a compilation of properties of binary mixtures (doi:10.1007/s10953-012-9937-x).

Assay: xn = mol fraction of the nth substance listed
Details: 298.15 K, 101 kPa

Question: Which viscosity (x2 = 0) does the source give for CCCCCCCCn1cc[n+](C)c1.F[B-](F)(F)F + CCC(C)=O here?
Answer: 336 mPa·s

Question: What about the viscosity (x2 = 0.209) of the same compound?
Answer: 100.3 mPa·s

Question: What about the viscosity (x2 = 0.2713) of the same compound?
Answer: 69.9 mPa·s

Question: And the viscosity (x2 = 0.3991)?
Answer: 34.24 mPa·s

Question: What about the viscosity (x2 = 0.5032) of the same compound?
Answer: 18.4 mPa·s

Question: And the viscosity (x2 = 0.551)?
Answer: 13.82 mPa·s

Question: What about the viscosity (x2 = 0.6006) of the same compound?
Answer: 10.26 mPa·s

Question: And the viscosity (x2 = 0.6442)?
Answer: 7.54 mPa·s

Question: What about the viscosity (x2 = 0.9518) of the same compound?
Answer: 0.63 mPa·s

Question: With CCC(C)=O + CCCCCCCCn1cc[n+](C)c1.F[B-](F)(F)F as the compound, how does the viscosity (x1 = 1) read?
Answer: 0.39 mPa·s

Question: Which viscosity (x1 = 1) does the source give for CCCOC(C)=O + CCCCCCCCn1cc[n+](C)c1.F[B-](F)(F)F here?
Answer: 0.56 mPa·s

Question: For CCOC(C)=O + CCCCCCCCn1cc[n+](C)c1.F[B-](F)(F)F, which viscosity (x1 = 1) is on record?
Answer: 0.44 mPa·s

Question: For COC(C)=O + CCCCCCCCn1cc[n+](C)c1.F[B-](F)(F)F, which viscosity (x1 = 1) is on record?
Answer: 0.39 mPa·s

Question: Which viscosity (x2 = 0) does the source give for CCCCCCCCn1cc[n+](C)c1.F[B-](F)(F)F + CCCCOC(C)=O here?
Answer: 336 mPa·s

Question: What about the viscosity (x2 = 0.1989) of the same compound?
Answer: 124.4 mPa·s

Question: And the viscosity (x2 = 0.3002)?
Answer: 74.3 mPa·s

Question: And the viscosity (x2 = 0.3991)?
Answer: 45.91 mPa·s

Question: And the viscosity (x2 = 0.502)?
Answer: 27.13 mPa·s

Question: What about the viscosity (x2 = 0.5548) of the same compound?
Answer: 20.31 mPa·s

Question: And the viscosity (x2 = 0.6024)?
Answer: 15.79 mPa·s

Question: And the viscosity (x2 = 0.654)?
Answer: 11.56 mPa·s

Question: What about the viscosity (x2 = 0.7075) of the same compound?
Answer: 8.27 mPa·s

Question: What about the viscosity (x2 = 0.8007) of the same compound?
Answer: 4.31 mPa·s

Question: What about the viscosity (x2 = 0.95) of the same compound?
Answer: 1.14 mPa·s

Question: With CCCCCCCCn1cc[n+](C)c1.F[B-](F)(F)F + CCCOC(C)=O as the compound, how does the viscosity (x2 = 0) read?
Answer: 336 mPa·s

Question: And the viscosity (x2 = 0.1006)?
Answer: 198.9 mPa·s

Question: What about the viscosity (x2 = 0.197) of the same compound?
Answer: 121.1 mPa·s

Question: What about the viscosity (x2 = 0.2972) of the same compound?
Answer: 75.8 mPa·s

Question: And the viscosity (x2 = 0.4992)?
Answer: 25.67 mPa·s

Question: And the viscosity (x2 = 0.6013)?
Answer: 14.19 mPa·s

Question: And the viscosity (x2 = 0.6504)?
Answer: 10.55 mPa·s

Question: And the viscosity (x2 = 0.7065)?
Answer: 7.48 mPa·s

Question: And the viscosity (x2 = 0.7992)?
Answer: 3.75 mPa·s

Question: What about the viscosity (x2 = 0.9043) of the same compound?
Answer: 1.51 mPa·s

Question: And the viscosity (x2 = 0.9529)?
Answer: 0.91 mPa·s

Question: For CCCCCCCCn1cc[n+](C)c1.F[B-](F)(F)F + CCOC(C)=O, which viscosity (x2 = 0) is on record?
Answer: 336 mPa·s

Question: What about the viscosity (x2 = 0.1092) of the same compound?
Answer: 181 mPa·s

Question: And the viscosity (x2 = 0.2953)?
Answer: 69.8 mPa·s

Question: And the viscosity (x2 = 0.4999)?
Answer: 23.13 mPa·s

Question: What about the viscosity (x2 = 0.5507) of the same compound?
Answer: 17.01 mPa·s

Question: And the viscosity (x2 = 0.7012)?
Answer: 6.56 mPa·s

Question: What about the viscosity (x2 = 0.9005) of the same compound?
Answer: 1.284 mPa·s

Question: With CCCCCCCCn1cc[n+](C)c1.F[B-](F)(F)F + COC(C)=O as the compound, how does the viscosity (x2 = 0) read?
Answer: 336 mPa·s

Question: What about the viscosity (x2 = 0.1173) of the same compound?
Answer: 188 mPa·s

Question: And the viscosity (x2 = 0.2964)?
Answer: 70 mPa·s

Question: What about the viscosity (x2 = 0.4063) of the same compound?
Answer: 34.24 mPa·s

Question: What about the viscosity (x2 = 0.4511) of the same compound?
Answer: 24.78 mPa·s

Question: And the viscosity (x2 = 0.4964)?
Answer: 18.4 mPa·s

Question: And the viscosity (x2 = 0.6056)?
Answer: 10.26 mPa·s

Question: And the viscosity (x2 = 0.6519)?
Answer: 7.54 mPa·s

Question: What about the viscosity (x2 = 0.7027) of the same compound?
Answer: 5.04 mPa·s

Question: What about the viscosity (x2 = 0.8989) of the same compound?
Answer: 1.03 mPa·s
